PubChem BioAssay (NCI)
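All cell lines were grown in 96-well plates and treated with compound for 48 hours. GI50: concentration for 50% inhibition of growth. The concentration for full growth arrest is given as TGI.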

Experiments:
Assay in all cases: DTP human tumour cell line panel, 48 h
OVCAR-8 ovarian = tested on: OVCAR-8 ovarian
NCI/ADR-RES ovarian = tested on: NCI/ADR-RES ovarian
MOLT-4 leukemia = tested on: MOLT-4 leukemia
TK-10 renal = tested on: TK-10 renal
786-0 renal = tested on: 786-0 renal
LOX IMVI melanoma = tested on: LOX IMVI melanoma
SNB-19 CNS = tested on: SNB-19 CNS
OVCAR-3 ovarian = tested on: OVCAR-3 ovarian
SW-620 colon = tested on: SW-620 colon
SK-MEL-5 melanoma = tested on: SK-MEL-5 melanoma
OVCAR-4 ovarian = tested on: OVCAR-4 ovarian
M14 melanoma = tested on: M14 melanoma
HOP-92 NSCLC = tested on: HOP-92 NSCLC
SR leukemia = tested on: SR leukemia
A498 renal = tested on: A498 renal
DU-145 prostate = tested on: DU-145 prostate
HCT-116 colon = tested on: HCT-116 colon
NCI-H23 lung = tested on: NCI-H23 lung
HS 578T breast = tested on: HS 578T breast
ACHN renal = tested on: ACHN renal
HT29 colon = tested on: HT29 colon
K-562 leukemia = tested on: K-562 leukemia
HOP-62 NSCLC = tested on: HOP-62 NSCLC
CCRF-CEM leukemia = tested on: CCRF-CEM leukemia
EKVX NSCLC = tested on: EKVX NSCLC
NCI-H226 lung = tested on: NCI-H226 lung
UACC-257 melanoma = tested on: UACC-257 melanoma
SK-MEL-28 melanoma = tested on: SK-MEL-28 melanoma
MALME-3M melanoma = tested on: MALME-3M melanoma
RPMI-8226 leukemia = tested on: RPMI-8226 leukemia
IGROV1 ovarian = tested on: IGROV1 ovarian
OVCAR-5 ovarian = tested on: OVCAR-5 ovarian
NCI-H460 lung = tested on: NCI-H460 lung
SF-295 CNS = tested on: SF-295 CNS
RXF 393 renal = tested on: RXF 393 renal
SF-539 CNS = tested on: SF-539 CNS
SK-MEL-2 melanoma = tested on: SK-MEL-2 melanoma
PC-3 prostate = tested on: PC-3 prostate
KM12 colon = tested on: KM12 colon
MDA-MB-435 = tested on: MDA-MB-435
HCC-2998 colon = tested on: HCC-2998 colon
HL-60(TB) leukemia = tested on: HL-60(TB) leukemia
BT-549 breast = tested on: BT-549 breast
SF-268 CNS = tested on: SF-268 CNS
UACC-62 melanoma = tested on: UACC-62 melanoma
MDA-MB-231 breast = tested on: MDA-MB-231 breast
SK-OV-3 ovarian = tested on: SK-OV-3 ovarian
SN12C renal = tested on: SN12C renal
HCT-15 colon = tested on: HCT-15 colon
SNB-75 CNS = tested on: SNB-75 CNS
CAKI-1 renal = tested on: CAKI-1 renal
A549 NSCLC = tested on: A549 NSCLC
T-47D breast = tested on: T-47D breast
UO-31 renal = tested on: UO-31 renal
U251 CNS = tested on: U251 CNS
MCF7 breast = tested on: MCF7 breast
NCI-H522 lung = tested on: NCI-H522 lung
COLO 205 colon = tested on: COLO 205 colon

COc1ccc(C[C@H]2COC(=O)[C@@H]2Cc2ccc(O)cc2)cc1OC
TGI (OVCAR-8 ovarian): > 100 µM | TGI (NCI/ADR-RES ovarian): > 100 µM | TGI (MOLT-4 leukemia): > 100 µM | TGI (TK-10 renal): > 100 µM | TGI (786-0 renal): > 100 µM | TGI (LOX IMVI melanoma): > 100 µM | TGI (SNB-19 CNS): > 100 µM | TGI (OVCAR-3 ovarian): > 100 µM | TGI (SW-620 colon): > 100 µM | TGI (SK-MEL-5 melanoma): > 100 µM | TGI (OVCAR-4 ovarian): > 100 µM | TGI (M14 melanoma): > 100 µM | TGI (HOP-92 NSCLC): > 100 µM | TGI (SR leukemia): > 100 µM | TGI (A498 renal): > 100 µM | TGI (DU-145 prostate): > 100 µM | TGI (HCT-116 colon): > 100 µM | TGI (NCI-H23 lung): > 100 µM | TGI (HS 578T breast): > 100 µM | TGI (ACHN renal): > 100 µM | TGI (HT29 colon): > 100 µM | TGI (K-562 leukemia): > 100 µM | TGI (HOP-62 NSCLC): > 100 µM | TGI (CCRF-CEM leukemia): > 100 µM | TGI (EKVX NSCLC): > 100 µM | TGI (NCI-H226 lung): > 100 µM | TGI (UACC-257 melanoma): > 100 µM | TGI (SK-MEL-28 melanoma): > 100 µM | TGI (MALME-3M melanoma): > 100 µM | TGI (RPMI-8226 leukemia): > 100 µM | TGI (IGROV1 ovarian): > 100 µM | TGI (OVCAR-5 ovarian): > 100 µM | TGI (NCI-H460 lung): > 100 µM | TGI (SF-295 CNS): > 100 µM

CN(C)CCCn1c(-c2cc(C(C)(C)C)c(O)c(C(C)(C)C)c2)csc1=Nc1ccccc1
TGI (NCI/ADR-RES ovarian): 3.45 µM | TGI (RXF 393 renal): 4.01 µM | TGI (MOLT-4 leukemia): 0.547 µM | TGI (TK-10 renal): 5.45 µM | TGI (SF-539 CNS): 3.38 µM | TGI (SK-MEL-2 melanoma): 8.51 µM | TGI (SNB-19 CNS): 4.52 µM | TGI (PC-3 prostate): 3.58 µM | TGI (OVCAR-3 ovarian): 3.04 µM | TGI (SW-620 colon): > 100 µM | TGI (KM12 colon): 3.6 µM | TGI (MDA-MB-435): 5 µM | TGI (HCC-2998 colon): 3.65 µM | TGI (HL-60(TB) leukemia): 8.76 µM | TGI (M14 melanoma): 3.84 µM | TGI (A498 renal): 6.94 µM | TGI (BT-549 breast): 7.8 µM | TGI (NCI-H23 lung): 3.73 µM | TGI (SF-268 CNS): 3.95 µM | TGI (ACHN renal): 9.14 µM | TGI (UACC-62 melanoma): 4.62 µM | TGI (HOP-62 NSCLC): 3.34 µM | TGI (EKVX NSCLC): 4.26 µM | TGI (NCI-H226 lung): 3.59 µM | TGI (UACC-257 melanoma): 3.39 µM | TGI (SK-MEL-28 melanoma): 4.73 µM | TGI (MDA-MB-231 breast): 20.8 µM | TGI (SK-OV-3 ovarian): 3.94 µM | TGI (SN12C renal): 6.15 µM | TGI (HCT-15 colon): 9.05 µM | TGI (OVCAR-5 ovarian): 4.19 µM | TGI (SNB-75 CNS): 8.34 µM | TGI (NCI-H460 lung): 6.58 µM | TGI (CAKI-1 renal): 52.4 µM | TGI (SF-295 CNS): 3.26 µM | TGI (A549 NSCLC): 3.46 µM

NC(=O)c1cc(Cl)ccc1NC(=O)c1ccccc1-c1ccccc1
GI50 (OVCAR-8 ovarian): 2.81 µM | TGI (OVCAR-8 ovarian): > 100 µM | GI50 (NCI/ADR-RES ovarian): 0.459 µM | TGI (NCI/ADR-RES ovarian): 26.4 µM | GI50 (RXF 393 renal): 0.806 µM | TGI (RXF 393 renal): 5.52 µM | GI50 (MOLT-4 leukemia): 0.743 µM | TGI (MOLT-4 leukemia): > 100 µM | GI50 (TK-10 renal): 3.69 µM | TGI (TK-10 renal): 48 µM | GI50 (SF-539 CNS): 0.319 µM | TGI (SF-539 CNS): 1.89 µM | GI50 (786-0 renal): 0.479 µM | TGI (786-0 renal): 17.9 µM | GI50 (T-47D breast): 1.74 µM | TGI (T-47D breast): 64.4 µM | GI50 (SK-MEL-2 melanoma): 0.288 µM | TGI (SK-MEL-2 melanoma): 0.799 µM | GI50 (LOX IMVI melanoma): 0.806 µM | TGI (LOX IMVI melanoma): 43 µM | GI50 (SNB-19 CNS): 0.709 µM | TGI (SNB-19 CNS): > 100 µM | GI50 (PC-3 prostate): 0.567 µM | TGI (PC-3 prostate): > 100 µM | GI50 (OVCAR-3 ovarian): 0.328 µM | TGI (OVCAR-3 ovarian): 2.59 µM | GI50 (SW-620 colon): 0.412 µM | TGI (SW-620 colon): > 100 µM | GI50 (UO-31 renal): 1.97 µM | TGI (UO-31 renal): > 100 µM | GI50 (SK-MEL-5 melanoma): 0.425 µM | TGI (SK-MEL-5 melanoma): 15.9 µM | GI50 (KM12 colon): 0.872 µM | TGI (KM12 colon): 46.3 µM | GI50 (HCC-2998 colon): 2.99 µM | TGI (HCC-2998 colon): 31.6 µM | GI50 (OVCAR-4 ovarian): 0.798 µM | TGI (OVCAR-4 ovarian): > 100 µM | GI50 (HL-60(TB) leukemia): 0.284 µM | TGI (HL-60(TB) leukemia): 20.4 µM | GI50 (U251 CNS): 0.65 µM | TGI (U251 CNS): > 100 µM | GI50 (M14 melanoma): 0.427 µM | TGI (M14 melanoma): 3.96 µM | GI50 (HOP-92 NSCLC): 3.96 µM | TGI (HOP-92 NSCLC): 61.5 µM | GI50 (SR leukemia): 0.439 µM | TGI (SR leukemia): 63 µM | GI50 (A498 renal): 0.155 µM | TGI (A498 renal): 9.78 µM | GI50 (DU-145 prostate): 0.597 µM | TGI (DU-145 prostate): 16 µM | GI50 (HCT-116 colon): 0.43 µM | TGI (HCT-116 colon): 65.1 µM | GI50 (BT-549 breast): 0.572 µM | TGI (BT-549 breast): 52.7 µM | GI50 (NCI-H23 lung): 2.01 µM | TGI (NCI-H23 lung): > 100 µM | GI50 (HS 578T breast): 1.07 µM | TGI (HS 578T breast): > 100 µM | GI50 (MCF7 breast): 0.457 µM | TGI (MCF7 breast): > 100 µM | GI50 (SF-268 CNS): 5.38 µM | TGI (SF-268 CNS): > 100 µM | GI50 (ACHN renal): 0.799 µM | TGI (ACHN renal): 87.6 µM | GI50 (UACC-62 melanoma): 0.836 µM | TGI (UACC-62 melanoma): 25.3 µM | GI50 (NCI-H522 lung): 0.289 µM | TGI (NCI-H522 lung): 0.988 µM | GI50 (HT29 colon): 0.385 µM | TGI (HT29 colon): 11.5 µM | GI50 (K-562 leukemia): 0.416 µM | TGI (K-562 leukemia): > 100 µM | GI50 (HOP-62 NSCLC): 0.902 µM | TGI (HOP-62 NSCLC): > 100 µM | GI50 (CCRF-CEM leukemia): 0.499 µM | TGI (CCRF-CEM leukemia): > 100 µM | GI50 (NCI-H226 lung): 18.4 µM | TGI (NCI-H226 lung): > 100 µM | GI50 (UACC-257 melanoma): 12.8 µM | TGI (UACC-257 melanoma): 73.2 µM | GI50 (SK-MEL-28 melanoma): 3.65 µM | TGI (SK-MEL-28 melanoma): > 100 µM | GI50 (MDA-MB-231 breast): 1.89 µM | TGI (MDA-MB-231 breast): 43.5 µM | GI50 (MALME-3M melanoma): 0.62 µM | TGI (MALME-3M melanoma): 62.9 µM | GI50 (SK-OV-3 ovarian): 0.677 µM | TGI (SK-OV-3 ovarian): 11.3 µM | GI50 (RPMI-8226 leukemia): 2.1 µM | TGI (RPMI-8226 leukemia): > 100 µM | GI50 (SN12C renal): 1.78 µM | TGI (SN12C renal): > 100 µM | GI50 (HCT-15 colon): 0.55 µM | TGI (HCT-15 colon): > 100 µM | GI50 (IGROV1 ovarian): 1.55 µM | TGI (IGROV1 ovarian): > 100 µM | GI50 (OVCAR-5 ovarian): 4.12 µM | TGI (OVCAR-5 ovarian): 79.1 µM | GI50 (SNB-75 CNS): 0.273 µM | TGI (SNB-75 CNS): 3.2 µM | GI50 (NCI-H460 lung): 0.453 µM | TGI (NCI-H460 lung): 28.7 µM | GI50 (CAKI-1 renal): 0.735 µM | TGI (CAKI-1 renal): 64.3 µM | GI50 (SF-295 CNS): 0.347 µM | TGI (SF-295 CNS): 15.9 µM | GI50 (COLO 205 colon): 0.923 µM | TGI (COLO 205 colon): 5.52 µM | GI50 (A549 NSCLC): 1.16 µM | TGI (A549 NSCLC): > 100 µM
